Results on 10 molecules are retold here after patent US5290926A, “Isolated DNA Encoding plant histidinol dehydrogenase” (Ciba-Geigy Corporation, priority 1990, dated 1994).

As a reminder, the Km is the concentration of substrate that gives half-maximal velocity.

Data set [1] deals with T1, histidinol dehydrogenase from cabbage (Brassica oleracea var. capitata, UniProt P24226).
T1 construct: Spring cabbage heads are homogenized using a kitchen mixer; from tissue; host or cells: mature spring cabbage heads
T1 sequence (P24226 32-469): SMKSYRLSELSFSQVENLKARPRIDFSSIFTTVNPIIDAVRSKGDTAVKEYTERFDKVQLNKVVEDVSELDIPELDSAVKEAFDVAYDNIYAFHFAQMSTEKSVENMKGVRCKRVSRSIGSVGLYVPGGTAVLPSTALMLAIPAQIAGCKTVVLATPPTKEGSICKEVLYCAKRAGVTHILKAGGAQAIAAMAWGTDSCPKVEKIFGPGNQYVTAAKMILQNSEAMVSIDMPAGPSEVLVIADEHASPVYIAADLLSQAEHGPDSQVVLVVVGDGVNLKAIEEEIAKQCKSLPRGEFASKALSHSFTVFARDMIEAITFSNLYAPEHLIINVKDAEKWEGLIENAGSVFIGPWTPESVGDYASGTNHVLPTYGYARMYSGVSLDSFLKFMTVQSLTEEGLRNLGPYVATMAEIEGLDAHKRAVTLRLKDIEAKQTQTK
The data set is described as follows: Histidinol dehydrogenase enzyme assay (spectrophotometric, NAD+ reduction at 340 nm). The data set is classed as biochemical. The conditions noted are these: for Relative Activity: metal ion 0.5 mM, activity after 3 min reaction time, None = 100. The procedure: (§1) […]
(§2) The enzyme activity is assayed spectrophotometrically by measuring the increase in absorbance at 340 nm due to the reduction of NAD+in a Hitachi U-3120 spectrophotometer. The reaction mixture contained 150 mM Gly/NaOH buffer, pH9.2, 0.5 mM, MnCl2, 2 mM NAD +, 5 mM histidinol, and 2-5 mU of enzyme sample in total volume of 0.5 ml. The reaction is started with the addition of histidinol, and incubated at 30° C. A reference sample containing water instead of histidinol is always run. One unit of enzyme catalyzing the formation of […] of NADH per min under the assay conditions.

Data set [2] has as its system histidinol dehydrogenase from S. typhimurium. As to conditions: cited from earlier work.
In data set [3] the test system is histidinol dehydrogenase from wheat germ. As to conditions: cited from earlier work.
Substrate in data set [4]: N[C@H](CO)Cc1c[nH]cn1
The data set is described as follows: purified protein, by the assay type. As to conditions: other: standard assay conditions; pH 9.2; 30.0 °C.

Substrate in data set [5]: NC(=O)c1ccc[n+]([C@@H]2O[C@H](COP(=O)([O-])OP(=O)(O)OC[C@H]3O[C@@H](n4cnc5c(N)ncnc54)[C@H](O)[C@@H]3O)[C@@H](O)[C@H]2O)c1
The data set is described as follows: Histidinol dehydrogenase enzyme assay (spectrophotometric, NAD+ reduction at 340 nm). The data set is classed as biochemical, cabbage (Brassica oleracea). As to conditions: other: standard assay conditions; pH 9.2; 30.0 °C. The procedure:
as §1, §2

Where [6] appears, read: reaction buffer 150 mM Gly/NaOH, pH9.2.

Like-named read-outs stand apart in the source and are kept apart here.

Take `[Ba+2]` [Ba^2+]: in data set [1], the “Relative Activity” value came out at 65%. Also, the “influence of divalent metal ion on the enzyme reaction (in words)” value (“influence of divalent metal ion” below) in data set [1] (setting [6]) is “caused inhibition”.
As to `[Ca+2]` [Ca^2+], in data set [1], the “Relative Activity” value is on record as 36%. Moreover, in data set [1] (setting [6]), the “influence of divalent metal ion” value is reported as “caused inhibition”.
`[Cu+2]` [Cu^2+]: the “Relative Activity” value in data set [1] is recorded as 24%. In addition, the “influence of divalent metal ion” value in data set [1] (setting [6]) is given as “caused inhibition”.
For the molecule `N[C@H](CO)Cc1c[nH]cn1` [L-histidinol], the Michaelis-Menten constant (Km) in data set [2] (read-out: Km of the pure enzyme from S. typhimurium for L-histidinol, pure enzyme) is 16 µM; in data set [3] (read-out: Km of the partially purified enzyme from wheat germ for L-histidinol), 8.8 µM.
As for `[Mg+2]` [Mg^2+], the “Relative Activity” value in data set [1] is reported as 54%. Moreover, the “influence of divalent metal ion” value in data set [1] (setting [6]) is listed as “caused inhibition”.
For the molecule `[Mn+2]` [Mn^2+], the “Relative Activity” value in data set [1] was determined as 126%. Besides, in data set [1] (setting [6]), the “influence of divalent metal ion” value is given as “stimulation of the enzyme activity” and the “stimulation of the reaction compared to control without any divalent metal ion” value stood at 26%. Moreover, the “effect of metal ion on the reaction catalyzed by the S. typhimurium enzyme (in words)” value in data set [2] is reported as “stimulated”.
Take `NC(=O)c1ccc[n+]([C@@H]2O[C@H](COP(=O)([O-])OP(=O)(O)OC[C@H]3O[C@@H](n4cnc5c(N)ncnc54)[C@H](O)[C@@H]3O)[C@@H](O)[C@H]2O)c1` [NAD+]: the Km in data set [2] (read-out: Km of the enzyme from S. typhimurium for NAD+) is 1000 µM; in data set [3] (partially purified enzyme, read-out: Km of the enzyme from wheat germ for NAD+), 140 µM.
In the case of `[Ni+2]` [Ni^2+], the “Relative Activity” value in data set [1] is listed as 46%. The “influence of divalent metal ion” value in data set [1] (setting [6]) is recorded as “caused inhibition”.
In the same order, the values of `[Zn+2]` [Zn^2+] are 34% and “caused inhibition”.

B1: histidinol dehydrogenase from cabbage (Brassica oleracea var. capitata) (protein)
chain: SMKSYRLSELSFSQVENLKARPRIDFSSIFTTVNPIIDAVRSKGDTAVKEYTERFDKVQLNKVVEDVSELDIPELDSAVKEAFDVAYDNIYAFHFAQMSTEKSVENMKGVRCKRVSRSIGSVGLYVPGGTAVLPSTALMLAIPAQIAGCKTVVLATPPTKEGSICKEVLYCAKRAGVTHILKAGGAQAIAAMAWGTDSCPKVEKIFGPGNQYVTAAKMILQNSEAMVSIDMPAGPSEVLVIADEHASPVYIAADLLSQAEHGPDSQVVLVVVGDGVNLKAIEEEIAKQCKSLPRGEFASKALSHSFTVFARDMIEAITFSNLYAPEHLIINVKDAEKWEGLIENAGSVFIGPWTPESVGDYASGTNHVLPTYGYARMYSGVSLDSFLKFMTVQSLTEEGLRNLGPYVATMAEIEGLDAHKRAVTLRLKDIEAKQTQTK
notes: Spring cabbage heads are homogenized using a kitchen mixer; from tissue; host or cells: mature spring cabbage heads
Regarding B1, the results for the Km in data set [4] and in data set [5] were 15.5 µM and 42 µM, respectively.
